Columns and labels:
Wnt3a = assay: Quantitative RT-PCR of Wnt3a expression during cardiac differentiation; assay type: cell-based, human; conditions: CHIR99021 6 μM day 0, 1.5 μM day 1; SB203580 and TA-01 5 μM
H1 cells = assay: Monolayer cardiac differentiation, H1 cells; assay type: cell-based, human; conditions: days 3–5, day 13; for Cardiac differentiation in H1 cells: 5 μM; for NKX2‐5/cTnT‐positive cells: H1, 5 μM (IWR-1: 2.5 μM)
IMR‐90 cells = assay: Monolayer cardiac differentiation, IMR-90 cells; assay type: cell-based, human; conditions: 5 μM (IWR-1: 2.5 μM), days 3–5, day 13
[1] = tested on: HES‐3 (NKX2‐5eGFP/w reporter cell line); assay type: cell-based, human; conditions: for Induction of cardiomyogenesis in HES-3 cells: 5 μM, days 3–5, day 13; for Percentage of NKX2‐5/GFP positive cells: HES-3, 5 μM (IWR-1: 2.5 μM), days 3–5, flow cytometry day 13, DMSO 14%
hPSCs = conditions: for Cell proliferation during neural differentiation: 5 and 10 μM, days 1 to 9, cell count day 9
[2] = tested on: HES‐3 (NKX2–5eGFP/w reporter cell line); conditions: 5 μM, days 3–5, image analysis on day 13
TGFBR2 [3] = target: T1, TGFBR2 (Homo sapiens, UniProt P37173); conditions: cited from earlier work
T1 sequence (P37173 23-567): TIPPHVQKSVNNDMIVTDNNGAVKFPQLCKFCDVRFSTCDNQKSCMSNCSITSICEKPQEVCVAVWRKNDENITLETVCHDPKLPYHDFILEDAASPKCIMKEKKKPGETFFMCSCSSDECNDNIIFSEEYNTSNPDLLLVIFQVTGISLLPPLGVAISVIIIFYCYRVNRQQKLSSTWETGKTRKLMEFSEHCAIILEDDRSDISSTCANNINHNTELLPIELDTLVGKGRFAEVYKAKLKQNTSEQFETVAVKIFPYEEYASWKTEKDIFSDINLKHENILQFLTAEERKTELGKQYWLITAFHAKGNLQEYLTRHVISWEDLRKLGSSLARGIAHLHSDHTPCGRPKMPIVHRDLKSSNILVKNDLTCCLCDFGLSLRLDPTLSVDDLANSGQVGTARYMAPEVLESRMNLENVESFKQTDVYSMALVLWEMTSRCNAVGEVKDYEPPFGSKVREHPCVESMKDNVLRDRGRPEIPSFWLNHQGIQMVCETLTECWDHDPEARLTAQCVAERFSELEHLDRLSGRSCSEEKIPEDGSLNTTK

BMPR1B kinase = conditions: percentage of control; cited from earlier work
TGFBR2 [4] = target: T1, TGFBR2; conditions: 1 μM compound
[5] = tested on: NKX2‐5/GFP‐positive cells; conditions: added from days 4 to 8; cited from earlier work
[6] = Permeability test: mass retention to the artificial membrane; assay type: in vitro ADME
[7] = tested on: SMAD/GFP reporter cell line (TGFβ pathway); conditions: 5 μM, then TGFβ3 2, 100, 1000 ng/ml
[8] = tested on: SMAD2 phosphorylation (TGFβ pathway); conditions: 5 μM, day 3, 30 minutes to 8 hours
ALK5 = target: T2, ALK5 (Homo sapiens, UniProt P36897); assay: LanthaScreen Eu Kinase binding assay, ALK5; conditions: for IC50: read-out: ALK5 IC50 ± SEM, mean ± SEM, triplicate
T2 sequence (P36897 34-503): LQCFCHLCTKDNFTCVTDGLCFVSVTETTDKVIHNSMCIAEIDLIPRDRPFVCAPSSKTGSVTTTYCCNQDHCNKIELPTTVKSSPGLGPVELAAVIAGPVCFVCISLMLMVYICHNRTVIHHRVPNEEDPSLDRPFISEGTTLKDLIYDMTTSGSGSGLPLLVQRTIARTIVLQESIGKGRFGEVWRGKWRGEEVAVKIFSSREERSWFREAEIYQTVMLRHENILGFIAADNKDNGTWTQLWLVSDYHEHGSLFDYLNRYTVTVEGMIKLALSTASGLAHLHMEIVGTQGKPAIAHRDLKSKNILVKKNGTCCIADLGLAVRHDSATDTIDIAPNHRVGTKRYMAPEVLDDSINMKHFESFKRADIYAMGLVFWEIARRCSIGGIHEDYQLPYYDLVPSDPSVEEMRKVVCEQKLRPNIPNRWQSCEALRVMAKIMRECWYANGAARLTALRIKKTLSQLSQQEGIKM

## Cc1c[nH]c(-c2cnc(NCCNc3ccc(C#N)cn3)nc2-c2ccc(Cl)cc2Cl)n1 [CHIR99021]
Wnt3a
  Suppression of Wnt3a expression on day 3: expression of Wnt3a was suppressed

## Cc1cccc(-c2[nH]ncc2-c2ccc(F)c(-c3cnn(CCO)c3)c2)n1 [Compound R268712]
H1 cells
  Cardiac differentiation in H1 cells: promoted cardiac differentiation
IMR‐90 cells
  Cardiac differentiation in IMR-90 cells: promoted cardiac differentiation
[1]
  Induction of cardiomyogenesis in HES-3 cells: failed to induce cardiomyogenesis

## CCOC(=O)C1=C(C)NC2=C(C(=O)CC(C)(C)C2)C1c1ccc(-c2ccccc2)cc1 (stereo not shown) [ITD‐1]
H1 cells
  NKX2‐5/cTnT‐positive cells: ~ 40%
hPSCs
  Cell proliferation during neural differentiation: inhibit cell proliferation
[1]
  Percentage of NKX2‐5/GFP positive cells: 25%

## Cc1ccc2nc(NC(=O)CSc3nc4c(c(=O)n3-c3ccccc3)SCC4)sc2c1 [IWP-2, reference compound]
[2]
  NKX2-5/GFP expression of EBs compared with TA-01: higher GFP expression than the lead compound TA‐01

## O=C(Nc1cccc2cccnc12)c1ccc(N2C(=O)[C@@H]3[C@H](C2=O)[C@@H]2C=C[C@H]3C2)cc1 [IWR-1]
H1 cells
  NKX2‐5/cTnT‐positive cells: approximately 80%
IMR‐90 cells
  Cardiac differentiation in IMR-90 cells: did not increase
Wnt/β‐catenin pathway; 2.5 μM
  Axin 1 and 2 expression: upregulation

## Cc1cccc(-c2[nH]ncc2-c2ccc3ncccc3n2)n1 [RepSox]
H1 cells
  Cardiac differentiation in H1 cells: promoted cardiac differentiation
IMR‐90 cells
  Cardiac differentiation in IMR-90 cells: promoted cardiac differentiation
[1]
  Induction of cardiomyogenesis in HES-3 cells: failed to induce cardiomyogenesis

## C[S+]([O-])c1ccc(-c2nc(-c3ccncc3)c(-c3ccc(F)cc3)[nH]2)cc1 (stereo not shown) [SB203580]
Wnt3a
  Suppression of Wnt3a expression on day 3: not observed

## Fc1ccc(Cl)cc1-c1nc(Nc2ccncc2)c2nccnc2n1 [SD208]
H1 cells
  Cardiac differentiation in H1 cells: promoted cardiac differentiation
IMR‐90 cells
  Cardiac differentiation in IMR-90 cells: promoted cardiac differentiation
[1]
  Induction of cardiomyogenesis in HES-3 cells: failed to induce cardiomyogenesis

## Fc1ccc(-c2nc(-c3c(F)cccc3F)[nH]c2-c2ccncc2)cc1 [TA-01]
TGFBR2 [3]
  TGFBR2 binding, percentage of control at 10 μM: 1.6
BMPR1B kinase
  BMPR1B binding, POC at 10 μM: 6.2
TGFBR2 [4]
  Percentage inhibition of TGFBR2 at 1 μM: 91%
Wnt3a
  Suppression of Wnt3a expression on day 3: not observed
[5]
  Increase in the percentage expression of NKX2‐5/GFP‐positive cells over DMSO: threefold
[1]
  Percentage of NKX2‐5/GFP positive cells: 30%–40%
[6]
  Permeability compared with IWR-1 and CHIR99021: less permeable

## Fc1ccc(-c2nc(-c3ccccc3)[nH]c2-c2ccncc2)cc1 [TI-14, 4-(4(5)-(4-Fluorophenyl)-2-phenyl-1H-imidazol-5(4)-yl)pyridine]
[2]
  NKX2-5/GFP expression of EBs compared with TA-01: higher GFP expression than the lead compound TA‐01

## Fc1ccc(-c2nc(-c3c(Cl)cccc3Cl)[nH]c2-c2ccncc2)cc1 [TI-15, 4-(2-(2,6-Dichlorophenyl)-4(5)-(4-fluorophenyl)-1H-imidazol-5(4)-yl)pyridine]
[7]
  Numbers of GFP‐positive cells (nuclear SMAD/GFP reporter): reduced
[2]
  NKX2-5/GFP expression of EBs compared with TA-01: higher GFP expression than the lead compound TA‐01
hPSCs; 2.5 μM, days 1 to 9
  Cell growth during neural differentiation at 2.5 μM: not at the concentration of 2.5 μM
hPSCs
  Cell proliferation during neural differentiation: inhibit cell proliferation
[8]
  Phosphorylation of SMAD2 protein at Ser 465/467: significantly reduced
TGFBR2 [4]
  Percentage inhibition of TGFBR2 at 1 μM: 80%
Wnt/β‐catenin pathway; 5 μM, day 3, 1, 4 and 8 hours after treatment
  β‐catenin phosphorylation on Ser552/675 and downstream TCF‐1/LEF‐1 expression: expression levels did not change
ALK5; ratio of IC50 values
  Potency in the inhibition of ALK5 relative to TA‐01: approximately 10 times
[1]; days 2–5, data not shown
  Cell proliferation during cardiac differentiation, dosing days 2–5: inhibition of cell proliferation
[1]; days 3–5
  Cell growth during cardiac differentiation, dosing days 3–5: does not inhibit cell growth
[6]
  Permeability compared with IWR-1 and CHIR99021: less permeable

## COc1ccccc1-c1nc(-c2ccc(F)cc2)c(-c2ccncc2)[nH]1 [TI-16, 4-(2-(2-Methoxyphenyl)-4(5)-(4-fluorophenyl)-1H-imidazol-5(4)-yl)pyridine]
[2]
  NKX2-5/GFP expression of EBs compared with TA-01: higher GFP expression than the lead compound TA‐01

## COc1cccc(OC)c1-c1nc(-c2ccc(F)cc2)c(-c2ccncc2)[nH]1 [TI-18, 4-(2-(2,6-Dimethoxyphenyl)-4(5)-(4-fluorophenyl)-1H-imidazol-5(4)-yl)pyridine]
ALK5
  IC50: 747 nM

## COc1cccc(F)c1-c1nc(-c2ccc(F)cc2)c(-c2ccncc2)[nH]1 [TI-20, 4-(2-(2-Fluoro-6-methoxyphenyl)-4(5)-(4-fluorophenyl)-1H-imidazol-5(4)-yl)pyridine]
[2]
  NKX2-5/GFP expression of EBs compared with TA-01: higher GFP expression than the lead compound TA‐01

## Fc1ccc(-c2nc(-c3c(F)cccc3Br)[nH]c2-c2ccncc2)cc1 [TI-21, 4-(2-(2-Bromo-6-fluorophenyl)-4(5)-(4-fluorophenyl)-1H-imidazol-5(4)-yl)pyridine]
[2]
  NKX2-5/GFP expression of EBs compared with TA-01: higher GFP expression than the lead compound TA‐01
ALK5
  IC50: 10.9 nM

## O=[N+]([O-])c1cccc(Cl)c1-c1nc(-c2ccc(F)cc2)c(-c2ccncc2)[nH]1 [TI-24, 4-(2-(2-Chloro-6-nitrophenyl)-4(5)-(4-fluorophenyl)-1H-imidazol-5(4)-yl)pyridine]
[2]
  NKX2-5/GFP expression of EBs compared with TA-01: higher GFP expression than the lead compound TA‐01
ALK5
  IC50: 13.1 nM

## COc1cc(O)c(-c2nc(-c3ccc(F)cc3)c(-c3ccncc3)[nH]2)c(OC)c1 [TI-25, 2-(4(5)-(4-Fluorophenyl)-5(4)-(pyridin-4-yl)-1H-imidazol-2-yl)-3,5-dimethoxyphenol]
[2]
  NKX2-5/GFP expression of EBs compared with TA-01: higher GFP expression than the lead compound TA‐01

## O=[N+]([O-])c1ccccc1-c1nc(-c2ccc(F)cc2)c(-c2ccncc2)[nH]1 [TI-26, 4-(4(5)-(4-Fluorophenyl)-2-(2-nitrophenyl)-1H-imidazol-5(4)-yl)pyridine]
[2]
  NKX2-5/GFP expression of EBs compared with TA-01: higher GFP expression than the lead compound TA‐01

## Cc1cccc(C)c1-c1nc(-c2ccc(F)cc2)c(-c2ccncc2)[nH]1 [TI-27, 4-(2-(2,6-Dimethylphenyl)-4(5)-(4-fluorophenyl)-1H-imidazol-5(4)-yl)pyridine]
[2]
  NKX2-5/GFP expression of EBs compared with TA-01: higher GFP expression than the lead compound TA‐01

## Fc1ccc(-c2nc(-c3c(F)cccc3I)[nH]c2-c2ccncc2)cc1 [TI-29, 4-(2-(2-Fluoro-6-iodophenyl)-4(5)-(4-fluorophenyl)-1H-imidazol-5(4)-yl)pyridine]
ALK5
  IC50: 22.1 nM

## Fc1ccc(-c2nc(-c3ccc4ccccc4c3Br)[nH]c2-c2ccncc2)cc1 [TI-33, 4-(2-(1-Bromonaphthalen-2-yl)-4(5)-(4-fluorophenyl)-1H-imidazol-5(4)-yl)pyridine]
[2]
  NKX2-5/GFP expression of EBs compared with TA-01: higher GFP expression than the lead compound TA‐01

## Fc1ccc(-c2nc(C3CCCCC3)[nH]c2-c2ccncc2)cc1 [TI-34, 4-(2-Cyclohexyl-4(5)-(4-fluorophenyl)-1H-imidazol-5(4)-yl)pyridine]
TGFBR2 [4]
  Percentage inhibition of TGFBR2 at 1 μM: 81%

## Fc1ccc(-c2c(-c3ccncc3)ncn2-c2ccccc2)cc1 [TI-38, 4-(5-(4-Fluorophenyl)-1-phenyl-1H-imidazol-4-yl)pyridine]
hPSCs
  Cell proliferation during neural differentiation: inhibit cell proliferation

## Fc1ccc(-c2nc(-c3ccc4ccccc4c3F)[nH]c2-c2ccncc2)cc1 [TI-42, 4-(2-(1-Fluoronaphthalen-2-yl)-4(5)-(4-fluorophenyl)-1H-imidazol-5(4)-yl)pyridine]
[6]
  Permeability compared with IWR-1 and CHIR99021: less permeable

— paper PMC6186272 (Stem Cells Translational Medicine, 2018)
